Experimental data as given in publication PMC11701928, “Co-crystal structure of Helicobacter pylori biotin protein ligase with biotinyl-5-ATP” (Acta Crystallographica Section F: Structural Biology …, 2025).

Target: T1, HpBPL (Helicobacter pylori, UniProt B5Z8D8)
T1 construct: gene HPG27_1085
T1 sequence (B5Z8D8 1-212): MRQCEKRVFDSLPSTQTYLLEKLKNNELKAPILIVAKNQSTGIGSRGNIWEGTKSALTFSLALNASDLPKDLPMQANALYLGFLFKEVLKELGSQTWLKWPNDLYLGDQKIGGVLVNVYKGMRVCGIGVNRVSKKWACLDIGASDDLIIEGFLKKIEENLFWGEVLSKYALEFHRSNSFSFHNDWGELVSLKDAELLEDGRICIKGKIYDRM
Experiment: turnover to biotinyl-5-ATP seen in crystal structure
Format: biochemical
Conditions: 10 min

With `O=C(O)CCCC[C@@H]1SC[C@@H]2NC(=O)N[C@@H]21` [biotin] the “turnover to biotinyl-5-ATP seen in crystal structure” value (6 mM biotin with 6 mM ATP and 6 mM MgCl2, 25 °C) was “catalytically active and generates biotinyl-5-ATP upon incubation with MgCl2, ATP and biotin”.

With `Nc1ncnc2c1ncn2[C@@H]1O[C@H](COP(=O)(O)OP(=O)(O)OP(=O)(O)O)[C@@H](O)[C@H]1O` [ATP] the “turnover to biotinyl-5-ATP seen in crystal structure” value (6 mM ATP with 6 mM biotin and 6 mM MgCl2, 25 °C) was “catalytically active and generates biotinyl-5-ATP upon incubation with MgCl2, ATP and biotin”.
